pIC50: −log10 of the molar value. Converted amounts (≈) assume the structure as drawn.
Experiments:
[1] = biological target: T1, Diacylglycerol O-acyltransferase 1 (Homo sapiens, UniProt O75907); assay: Inhibition of human DGAT1 expressed in yeast membrane fraction assessed as inhibition of triglyceride formation using diolein/oleoyl-CoA as substrate measured after 1 hr by 7-diethylamino-3-(4'-maleimidylphenyl)-4-methylcoumarin based fluorescence analysis; type: cell membranes
T1 sequence (O75907 whole entry): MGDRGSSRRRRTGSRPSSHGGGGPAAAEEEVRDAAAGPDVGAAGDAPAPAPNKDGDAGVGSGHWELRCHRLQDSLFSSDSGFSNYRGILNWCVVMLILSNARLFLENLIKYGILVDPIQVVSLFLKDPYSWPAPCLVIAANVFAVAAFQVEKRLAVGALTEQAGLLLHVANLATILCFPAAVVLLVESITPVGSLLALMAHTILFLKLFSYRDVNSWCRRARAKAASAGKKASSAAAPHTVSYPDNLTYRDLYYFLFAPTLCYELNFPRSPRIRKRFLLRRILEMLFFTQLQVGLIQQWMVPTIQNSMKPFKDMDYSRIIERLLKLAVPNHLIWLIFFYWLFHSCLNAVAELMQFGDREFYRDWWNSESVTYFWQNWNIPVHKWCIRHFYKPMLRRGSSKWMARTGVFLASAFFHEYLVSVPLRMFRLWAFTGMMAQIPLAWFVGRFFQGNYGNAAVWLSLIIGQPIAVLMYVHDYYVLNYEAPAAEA

[2] = Lipophilicity, log D of the compound; type: physicochemical; conditions: octanol/water
Mus musculus [3] = assay: Reduction in triglyceride level in mouse plasma at 30 mg/kg, po after 18 hrs by lipid tolerance test; type: functional
Cytochrome P450 3A4 = Cytochrome P450 3A4 (Homo sapiens, UniProt P08684); assay: Inhibition of CYP3A4 (unknown origin); type: ADME
Chain of Cytochrome P450 3A4 (P08684 whole entry): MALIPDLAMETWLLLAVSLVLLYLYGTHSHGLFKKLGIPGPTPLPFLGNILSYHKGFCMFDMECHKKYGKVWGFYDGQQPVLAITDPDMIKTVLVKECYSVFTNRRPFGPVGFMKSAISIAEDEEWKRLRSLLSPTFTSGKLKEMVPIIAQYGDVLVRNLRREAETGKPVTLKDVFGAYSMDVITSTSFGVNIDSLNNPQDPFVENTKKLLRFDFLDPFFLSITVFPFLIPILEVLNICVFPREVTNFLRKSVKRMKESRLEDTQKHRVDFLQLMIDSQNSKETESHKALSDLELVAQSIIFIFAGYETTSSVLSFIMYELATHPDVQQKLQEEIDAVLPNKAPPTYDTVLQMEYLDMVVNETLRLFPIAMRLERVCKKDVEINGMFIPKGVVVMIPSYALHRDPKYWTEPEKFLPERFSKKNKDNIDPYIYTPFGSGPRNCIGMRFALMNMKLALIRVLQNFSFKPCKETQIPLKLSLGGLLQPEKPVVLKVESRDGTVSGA

[4] = Solubility of the compound at pH 2; type: physicochemical; conditions: buffer
Mus musculus [5] = assay: Reduction in triglyceride level in mouse plasma at 10 mg/kg,po after 18 hrs by lipid tolerance test; type: functional
[6] = Solubility of the compound at pH 7; type: physicochemical; conditions: buffer
Cytochrome P450 2C9 = Cytochrome P450 2C9 (Homo sapiens, UniProt P11712); assay: Inhibition of CYP2C9 (unknown origin); type: ADME
Chain of Cytochrome P450 2C9 (P11712 whole entry): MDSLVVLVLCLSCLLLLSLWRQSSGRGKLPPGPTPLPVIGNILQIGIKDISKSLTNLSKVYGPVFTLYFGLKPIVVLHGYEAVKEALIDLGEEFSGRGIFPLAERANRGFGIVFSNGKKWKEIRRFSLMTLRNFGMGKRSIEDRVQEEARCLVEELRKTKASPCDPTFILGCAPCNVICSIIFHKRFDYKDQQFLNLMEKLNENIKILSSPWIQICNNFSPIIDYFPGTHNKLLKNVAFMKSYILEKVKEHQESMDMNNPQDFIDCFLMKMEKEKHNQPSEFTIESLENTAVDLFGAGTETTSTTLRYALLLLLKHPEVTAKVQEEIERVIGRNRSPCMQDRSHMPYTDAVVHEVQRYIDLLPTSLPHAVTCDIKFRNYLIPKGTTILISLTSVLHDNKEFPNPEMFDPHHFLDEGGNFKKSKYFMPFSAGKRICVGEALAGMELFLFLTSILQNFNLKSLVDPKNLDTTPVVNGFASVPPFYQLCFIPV

[7] = biological target: T2, Nuclear receptor subfamily 1 group I member 2 (Homo sapiens, UniProt O75469); assay: Inhibition of PXR (unknown origin); type: ADME
T2 sequence (O75469 whole entry): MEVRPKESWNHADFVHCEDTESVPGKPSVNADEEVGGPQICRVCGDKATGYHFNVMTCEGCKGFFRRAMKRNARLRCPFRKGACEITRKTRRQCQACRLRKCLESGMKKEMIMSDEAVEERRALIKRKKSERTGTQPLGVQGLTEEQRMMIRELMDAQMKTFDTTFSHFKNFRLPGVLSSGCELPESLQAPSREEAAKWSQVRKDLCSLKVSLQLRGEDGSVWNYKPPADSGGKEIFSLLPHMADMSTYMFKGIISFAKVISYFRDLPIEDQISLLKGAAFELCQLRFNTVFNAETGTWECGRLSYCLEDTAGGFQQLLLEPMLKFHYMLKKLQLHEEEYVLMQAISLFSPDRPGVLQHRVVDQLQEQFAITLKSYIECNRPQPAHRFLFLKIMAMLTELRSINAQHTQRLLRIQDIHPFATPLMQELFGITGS

[8] = biological target: Voltage-gated inwardly rectifying potassium channel KCNH2 (Homo sapiens, UniProt Q12809); assay: Inhibition of MK499 binding to human ERG
Chain of Voltage-gated inwardly rectifying potassium channel KCNH2 (Q12809 whole entry): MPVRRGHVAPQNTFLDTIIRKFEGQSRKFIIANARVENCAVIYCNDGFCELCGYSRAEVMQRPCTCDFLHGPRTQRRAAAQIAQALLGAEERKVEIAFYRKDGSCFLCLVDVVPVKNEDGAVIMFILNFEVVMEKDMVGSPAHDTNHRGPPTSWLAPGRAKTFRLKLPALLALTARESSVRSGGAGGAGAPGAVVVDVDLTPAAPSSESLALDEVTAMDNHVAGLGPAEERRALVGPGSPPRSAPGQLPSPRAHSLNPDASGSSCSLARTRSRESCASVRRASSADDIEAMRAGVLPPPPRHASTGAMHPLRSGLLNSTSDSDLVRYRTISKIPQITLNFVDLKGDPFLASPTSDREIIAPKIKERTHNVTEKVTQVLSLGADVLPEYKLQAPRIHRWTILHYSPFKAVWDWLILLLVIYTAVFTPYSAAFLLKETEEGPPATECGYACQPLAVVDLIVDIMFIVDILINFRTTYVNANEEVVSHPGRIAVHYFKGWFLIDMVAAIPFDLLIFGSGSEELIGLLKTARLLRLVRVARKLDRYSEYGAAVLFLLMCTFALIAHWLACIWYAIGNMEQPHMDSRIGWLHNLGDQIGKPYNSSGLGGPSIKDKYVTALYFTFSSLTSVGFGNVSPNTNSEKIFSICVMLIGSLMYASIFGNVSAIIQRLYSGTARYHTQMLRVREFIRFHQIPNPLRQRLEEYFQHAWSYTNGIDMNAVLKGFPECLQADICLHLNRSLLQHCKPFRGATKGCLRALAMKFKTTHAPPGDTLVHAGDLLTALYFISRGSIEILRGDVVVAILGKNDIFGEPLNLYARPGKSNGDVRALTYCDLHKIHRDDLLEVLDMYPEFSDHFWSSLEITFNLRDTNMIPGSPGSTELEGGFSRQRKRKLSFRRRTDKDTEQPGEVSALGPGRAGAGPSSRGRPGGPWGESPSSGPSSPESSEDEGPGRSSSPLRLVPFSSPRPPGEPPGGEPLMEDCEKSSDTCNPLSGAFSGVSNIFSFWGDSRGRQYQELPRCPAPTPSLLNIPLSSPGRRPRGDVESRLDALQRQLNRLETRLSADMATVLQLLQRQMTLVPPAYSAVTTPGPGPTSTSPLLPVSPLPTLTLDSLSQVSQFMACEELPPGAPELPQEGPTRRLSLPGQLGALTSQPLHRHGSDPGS

Rattus norvegicus = assay: Intrinsic clearance Wistar Han rat at 1 mg/kg, iv; type: ADME, organism-based; conditions: in vivo
[9] = biological target: T3, Diacylglycerol O-acyltransferase 1 (Mus musculus, UniProt Q9Z2A7); assay: Inhibition of mouse DGAT1 assessed as inhibition of triglyceride formation
T3 sequence (Q9Z2A7 whole entry): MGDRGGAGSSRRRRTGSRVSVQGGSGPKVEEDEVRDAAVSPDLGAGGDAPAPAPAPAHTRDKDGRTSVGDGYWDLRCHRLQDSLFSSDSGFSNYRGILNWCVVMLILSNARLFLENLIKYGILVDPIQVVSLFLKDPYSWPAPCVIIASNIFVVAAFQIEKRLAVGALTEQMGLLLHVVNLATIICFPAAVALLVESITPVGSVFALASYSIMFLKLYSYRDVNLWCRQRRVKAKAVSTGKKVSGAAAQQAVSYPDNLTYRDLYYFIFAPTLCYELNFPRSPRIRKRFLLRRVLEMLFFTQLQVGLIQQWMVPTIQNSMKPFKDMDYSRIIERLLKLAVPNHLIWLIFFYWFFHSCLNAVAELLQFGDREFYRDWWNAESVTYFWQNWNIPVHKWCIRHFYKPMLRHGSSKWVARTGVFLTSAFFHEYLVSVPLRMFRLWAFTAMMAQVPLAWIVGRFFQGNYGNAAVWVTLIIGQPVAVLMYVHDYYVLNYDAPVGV

pIC50 [1] | logD ([2]; read-out: logD) | pIC50 (Cytochrome P450 3A4) | solubility ([4]; read-out: solubility) [µM] | solubility ([6]; read-out: solubility) [µM] | pIC50 (Cytochrome P450 2C9) | pIC50 [7] | SMILES | pIC50 [8] | other results
7.18 | – | – | – | – | – | – | O=C1OC2(CCN(c3ccc(-c4nc5cc(Cl)ccc5[nH]4)cn3)CC2)c2cnccc21 | – | –
5.78 | – | – | – | – | – | – | FC(F)(F)c1ccc2[nH]c(-c3ccc(N4CCC(c5ccccc5)(c5ccccc5)CC4)nc3)nc2c1 | – | –
– | 1.44 | < 4.30 | 171 (≈ 78.7 µg/mL) | 158 (≈ 72.8 µg/mL) | < 4.30 | < 4.52 | O=C(O)C[C@@H]1COC2(CCN(c3ccc(-c4nc5cc(C(F)(F)F)ccc5[nH]4)cn3)CC2)C1 | – | inhibition in vivo at 30 mg/kg (Mus musculus [3]): 54%; inhibition in vivo at 10 mg/kg (Mus musculus [5]): 32%
6.44 | 1.54 | – | 167 (≈ 76.9 µg/mL) | 154 (≈ 70.9 µg/mL) | – | – | O=C(O)C1CCC2(CCN(c3ccc(-c4nc5cc(C(F)(F)F)ccc5[nH]4)cn3)CC2)CO1 (stereo unspecified) | – | –
< 5.00 | – | – | – | – | – | – | Clc1ccc2[nH]c(-c3ccc(N4C[C@@H]5C[C@H]4CN5c4ccccc4)nc3)nc2c1 | – | –
– | 1.52 | < 4.30 | 174 (≈ 80.1 µg/mL) | 163 (≈ 75.1 µg/mL) | < 4.30 | < 4.52 | O=C(O)C1CCC2(CCN(c3ccc(-c4nc5cc(C(F)(F)F)ccc5[nH]4)cn3)CC2)OC1 (stereo unspecified) | 4.83 | –
7.21 | – | – | – | – | – | – | FC(F)(F)c1ccc2[nH]c(-c3ccc(N4CCC(c5ccccn5)CC4)nc3)nc2c1 | – | –
5.06 | – | – | – | – | – | – | FC(F)(F)c1ccc2[nH]c(-c3ccc(N4CCC5(CC4)OC(Cc4cc(Cl)cc(Cl)c4)c4ccccc45)nc3)nc2c1 (stereo unspecified) | – | –
– | 1.45 | < 4.30 | 170 (≈ 78.3 µg/mL) | 153 (≈ 70.4 µg/mL) | < 4.30 | < 4.52 | O=C(O)C[C@H]1COC2(CCN(c3ccc(-c4nc5cc(C(F)(F)F)ccc5[nH]4)cn3)CC2)C1 | – | –
8.00 | – | – | < 10 | – | 5.47 | – | O=C1OC2(CCN(c3ccc(-c4nc5cc(Cl)ccc5[nH]4)cn3)CC2)c2ncccc21 | – | –
7.28 | – | – | – | – | – | – | O=C1OC2(CCN(c3ccc(-c4nc5cc(Cl)ccc5[nH]4)cn3)CC2)c2ccccc21 | – | –
– | – | – | < 10 | – | – | – | O=C(O)c1ccc2c(c1)C(=O)OC21CCN(c2ccc(-c3nc4cc(C(F)(F)F)ccc4[nH]3)cn2)CC1 | 6.25 | –
7.05 | – | – | – | – | – | – | Cc1cccc(Cl)c1NC(=O)N1CCN(c2ccc(-c3nc4cc(C(F)(F)F)ccc4[nH]3)cn2)CC1 | – | –
6.88 | – | – | – | – | – | – | O=S1(=O)CCC(N2CCN(c3ccc(-c4nc5cc(C(F)(F)F)ccc5[nH]4)cn3)CC2)C1 (stereo unspecified) | – | –
6.67 | – | – | – | – | – | – | CS(=O)(=O)C1CCN(c2ccc(-c3nc4cc(C(F)(F)F)ccc4[nH]3)cn2)CC1 | – | –
6.86 | – | – | – | – | – | – | Clc1ccc2[nH]c(-c3ccc(N4CCC5(CC4)OCc4ccccc45)nc3)nc2c1 | – | –
8.22 | 1.76 | 5.19 | < 4 | 45 (≈ 21.3 µg/mL) | 4.97 | < 4.52 | O=C(O)CC1CCC2(CC1)CCN(c1ccc(-c3nc4cc(C(F)(F)F)ccc4[nH]3)cn1)CC2 | – | –
5.85 | – | – | – | – | – | – | O=C1OC2(CCN(c3ccc(-c4nc5cc(C(F)(F)F)ccc5[nH]4)cn3)CC2)CN1c1ccccc1 | – | –
< 5.00 | 1.38 | < 4.30 | 207 (≈ 98 µg/mL) | 168 (≈ 79.5 µg/mL) | < 4.30 | < 4.52 | O=C(O)CN1CCC2(CC1)CCN(c1ccc(-c3nc4cc(C(F)(F)F)ccc4[nH]3)cn1)CC2 | 5.32 | –
– | 1.52 | < 4.30 | 179 (≈ 84.9 µg/mL) | 172 (≈ 81.6 µg/mL) | < 4.30 | < 4.52 | O=C(O)CC1CCC2(CCN(c3ccc(-c4nc5cc(C(F)(F)F)ccc5[nH]4)cn3)CC2)OC1 (racemic) | 5.11 | –
– | 1.43 | < 4.30 | 185 (≈ 87.8 µg/mL) | 184 (≈ 87.3 µg/mL) | < 4.30 | < 4.52 | O=C(O)CC1CCOC2(CCN(c3ccc(-c4nc5cc(C(F)(F)F)ccc5[nH]4)cn3)CC2)C1 (racemic) | – | –
– | 1.55 | < 4.30 | 170 (≈ 78.3 µg/mL) | 149 (≈ 68.6 µg/mL) | < 4.30 | < 4.52 | O=C(O)CC1CCC2(CCN(c3ccc(-c4nc5cc(C(F)(F)F)ccc5[nH]4)cn3)CC2)O1 (racemic) | < 4.22 | CL (Rattus norvegicus): 34.2 mL/min/kg
– | 1.51 | < 4.30 | 170 (≈ 78.3 µg/mL) | 182 (≈ 83.8 µg/mL) | < 4.30 | < 4.52 | O=C(O)CC1COC2(CCN(c3ccc(-c4nc5cc(C(F)(F)F)ccc5[nH]4)cn3)CC2)C1 (racemic) | – | pIC50 [9]: 6.75
– | – | 4.88 | – | – | 4.59 | < 4.52 | O=C(O)CC1CCC2(CCN(c3ccc(-c4nc5cc(C(F)(F)F)ccc5[nH]4)cn3)CC2)OC1 (single isomer, unassigned; ent B) | 5.92 | –
– | – | – | – | – | – | – | O=C(O)CC1CCC2(CCN(c3ccc(-c4nc5cc(C(F)(F)F)ccc5[nH]4)cn3)CC2)O1 (single isomer, unassigned; form 1) | 4.80 | logD [2]: 1.52; solubility [4]: > 200 µM; solubility [6]: 190 µM (≈ 87.5 µg/mL)
– | – | < 4.30 | – | – | 4.40 | < 4.52 | O=C(O)CC1CCC2(CCN(c3ccc(-c4nc5cc(C(F)(F)F)ccc5[nH]4)cn3)CC2)O1 (single isomer, unassigned; form 2) | 4.76 | logD [2]: 1.58; solubility [4]: 163 µM (≈ 75.1 µg/mL); solubility [6]: 147 µM (≈ 67.7 µg/mL)
– | – | 4.71 | – | – | 4.69 | < 4.52 | O=C(O)CC1CCC2(CCN(c3ccc(-c4nc5cc(C(F)(F)F)ccc5[nH]4)cn3)CC2)OC1 (stereo in doubt) | 6.10 | –
– | – | < 4.30 | – | – | 4.34 | < 4.52 | O=C(O)CC1CCOC2(CCN(c3ccc(-c4nc5cc(C(F)(F)F)ccc5[nH]4)cn3)CC2)C1 (stereo in doubt; form 1) | – | logD [2]: 1.48; solubility [4]: 173 µM (≈ 82.1 µg/mL); solubility [6]: 168 µM (≈ 79.7 µg/mL)
– | – | < 4.30 | – | – | 4.45 | < 4.52 | O=C(O)CC1CCOC2(CCN(c3ccc(-c4nc5cc(C(F)(F)F)ccc5[nH]4)cn3)CC2)C1 (stereo in doubt; form 2) | – | logD [2]: 1.47; solubility [4]: 169 µM (≈ 80.2 µg/mL); solubility [6]: 174 µM (≈ 82.6 µg/mL)

SMILES | pIC50 [1] | logD ([2]; read-out: logD) | pIC50 (Cytochrome P450 3A4) | solubility ([4]; read-out: solubility) [µM] | solubility ([6]; read-out: solubility) [µM] | pIC50 (Cytochrome P450 2C9) | pIC50 [7] | pIC50 [8] | other results
N#Cc1ccc(N2C(=O)NC3(CCN(c4ccc(-c5nc6cc(C(F)(F)F)ccc6[nH]5)cn4)CC3)C2=O)cc1 | 6.42 | – | – | – | – | – | – | – | –

— ChEMBL document CHEMBL4049398, “Microscale High-Throughput Experimentation as an Enabling Technology in Drug Discovery: Application in the Discovery of (Piperidinyl)pyridinyl-1H-benzimidazole Diacylglycerol Acyltransferase 1 Inhibitors” (J Med Chem, 2017)
